Data as given in US8741836B2, “Polypeptides” (Novo Nordisk A/S, priority 2011, dated 2014).
Starred links: 1 amine or outer side, 2 acyl side, 3 side chain; linkers in the order of their positions; H or OH if unused. Positions of bridges follow the written chain, without caps; N, C: chain ends. Residues, ends and D or L forms follow the SMILES beside them. *: point of attachment. C20 diacid = O=C(O)CCCCCCCCCCCCCCCCCCC(=O)*; γGlu = O=C(O)[C@H](CCC(=O)[*:2])N[*:1]

Assay: Assay (III) ThT fibrillation assay for physical stability
Type: physicochemical
Conditions: for ThT pH 4.0 lag time: pH 4.0, ThT fibrillation assay
In short: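 Freshly prepared, pH-adjusted formulations with 1 μM ThT incubated at 37 °C under 960 rpm orbital shaking (1 mm), fluorescence (ex 444, em 485 nm) read every 20 min. […] Peptide content before and after measured by reverse-phase HPLC against pramlintide standard.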

| ThT pH 4.0 lag time (physical stability in fibrillogenesis assay) [h] | ThT pH 4.0 lag time [h] | Structure (SMILES) |
| --- | --- | --- |
| >45 | >45 | CC[C@H](C)[C@H](NC(=O)[C@@H]1CCCN1C(=O)CNC(=O)[C@H](Cc1ccccc1)NC(=O)[C@H](CC(N)=O)NC(=O)[C@H](CC(N)=O)NC(=O)[C@H](CO)NC(=O)[C@H](CO)NC(=O)[C@H](Cc1c[nH]cn1)NC(=O)[C@H](CCCNC(=N)N)NC(=O)[C@H](CC(C)C)NC(=O)[C@H](Cc1ccccc1)NC(=O)[C@H](CCC(=O)O)NC(=O)[C@H](C)NC(=O)[C@H](CC(C)C)NC(=O)[C@H](CCCNC(=N)N)NC(=O)[C@H](CCC(N)=O)NC(=O)[C@@H](NC(=O)[C@H](C)NC(=O)[C@@H]1CSSC[C@H](NC(=O)CNC(=O)CC[C@H](NC(=O)CCCCCCCCCCCCCCCCCCC(=O)O)C(=O)O)C(=O)N[C@@H](CC(N)=O)C(=O)N[C@@H]([C@@H](C)O)C(=O)N[C@@H](C)C(=O)N[C@@H]([C@@H](C)O)C(=O)N1)[C@@H](C)O)C(=O)N[C@@H](CC(C)C)C(=O)N1CCC[C@H]1C(=O)N1CCC[C@H]1C(=O)N[C@H](C(=O)N[C@@H](CC(N)=O)C(=O)N[C@H](C(=O)NCC(=O)N[C@@H](CO)C(=O)N[C@@H](CC(N)=O)C(=O)N[C@H](C(=O)N1CCC[C@H]1C(N)=O)[C@@H](C)O)C(C)C)[C@@H](C)O [Example 88, N-alpha-[(S)-4-Carboxy-4-(19-carboxynonadecanoylamino)butyryl]-[Gly1,Glu14,Arg17,Pro37]-pramlintide] ({C20 diacid-γGlu}-GCNTATCATQRLAEFLRHSSNNFGPILPPTNVGSNTP-NH2; disulfide 2-7) |
| >45 | >45 | CC[C@H](C)[C@H](NC(=O)[C@@H]1CCCN1C(=O)CNC(=O)[C@H](Cc1ccccc1)NC(=O)[C@H](CC(N)=O)NC(=O)[C@H](CC(N)=O)NC(=O)[C@H](CO)NC(=O)[C@H](CO)NC(=O)[C@H](Cc1c[nH]cn1)NC(=O)[C@H](CCCNC(=N)N)NC(=O)[C@H](CC(C)C)NC(=O)[C@H](Cc1ccccc1)NC(=O)[C@H](CCC(=O)O)NC(=O)[C@H](C)NC(=O)[C@H](CC(C)C)NC(=O)[C@H](CCCNC(=N)N)NC(=O)[C@H](CCC(N)=O)NC(=O)[C@@H](NC(=O)[C@H](C)NC(=O)[C@@H]1CSSC[C@H](NC(=O)[C@H](Cc2c[nH]cn2)NC(=O)CC[C@H](NC(=O)CCCCCCCCCCCCCCCCCCC(=O)O)C(=O)O)C(=O)N[C@@H](CC(N)=O)C(=O)N[C@@H]([C@@H](C)O)C(=O)N[C@@H](C)C(=O)N[C@@H]([C@@H](C)O)C(=O)N1)[C@@H](C)O)C(=O)N[C@@H](CC(C)C)C(=O)N1CCC[C@H]1C(=O)N1CCC[C@H]1C(=O)N[C@H](C(=O)N[C@@H](CC(N)=O)C(=O)N[C@H](C(=O)NCC(=O)N[C@@H](CO)C(=O)N[C@@H](CC(N)=O)C(=O)N[C@H](C(=O)N1CCC[C@H]1C(N)=O)[C@@H](C)O)C(C)C)[C@@H](C)O [Example 90, N-alpha-[(S)-4-Carboxy-4-(19-carboxynonadecanoylamino)butyryl]-[His1,Glu14,Arg17,Pro37]-pramlintide] ({C20 diacid-γGlu}-HCNTATCATQRLAEFLRHSSNNFGPILPPTNVGSNTP-NH2; disulfide 2-7) |
|  | 29 | CC[C@H](C)[C@H](NC(=O)[C@@H]1CCCN1C(=O)CNC(=O)[C@H](Cc1ccccc1)NC(=O)[C@H](CC(N)=O)NC(=O)[C@H](CC(N)=O)NC(=O)[C@H](CO)NC(=O)[C@H](CO)NC(=O)[C@H](Cc1c[nH]cn1)NC(=O)[C@H](Cc1c[nH]cn1)NC(=O)[C@H](CC(C)C)NC(=O)[C@H](Cc1ccccc1)NC(=O)[C@H](CCC(=O)O)NC(=O)[C@H](C)NC(=O)[C@H](CC(C)C)NC(=O)[C@H](CCCNC(=N)N)NC(=O)[C@H](CCC(N)=O)NC(=O)[C@@H](NC(=O)[C@H](C)NC(=O)[C@@H]1CSSC[C@H](NC(=O)CNC(=O)CC[C@H](NC(=O)CCCCCCCCCCCCCCCCCCC(=O)O)C(=O)O)C(=O)N[C@@H](CC(N)=O)C(=O)N[C@@H]([C@@H](C)O)C(=O)N[C@@H](C)C(=O)N[C@@H]([C@@H](C)O)C(=O)N1)[C@@H](C)O)C(=O)N[C@@H](CC(C)C)C(=O)N1CCC[C@H]1C(=O)N1CCC[C@H]1C(=O)N[C@H](C(=O)N[C@@H](CC(N)=O)C(=O)N[C@H](C(=O)NCC(=O)N[C@@H](CO)C(=O)N[C@@H](CC(N)=O)C(=O)N[C@H](C(=O)N1CCC[C@H]1C(N)=O)[C@@H](C)O)C(C)C)[C@@H](C)O [Example 91, N-alpha-[(S)-4-Carboxy-4-(19-carboxynonadecanoylamino)butyryl]-[Gly1,Glu14,His17,Pro37]-pramlintide] ({C20 diacid-γGlu}-GCNTATCATQRLAEFLHHSSNNFGPILPPTNVGSNTP-NH2; disulfide 2-7 (inferred)) |
|  | >45 | CC[C@H](C)[C@H](NC(=O)[C@@H]1CCCN1C(=O)CNC(=O)[C@H](Cc1ccccc1)NC(=O)[C@H](CC(N)=O)NC(=O)[C@H](CC(N)=O)NC(=O)[C@H](CO)NC(=O)[C@H](CO)NC(=O)[C@H](Cc1c[nH]cn1)NC(=O)[C@H](Cc1c[nH]cn1)NC(=O)[C@H](CC(C)C)NC(=O)[C@H](Cc1ccccc1)NC(=O)[C@H](CCC(=O)O)NC(=O)[C@H](C)NC(=O)[C@H](CC(C)C)NC(=O)[C@H](CCCNC(=N)N)NC(=O)[C@H](CCC(N)=O)NC(=O)[C@@H](NC(=O)[C@H](C)NC(=O)[C@@H]1CSSC[C@H](NC(=O)[C@H](CCCNC(=N)N)NC(=O)CC[C@H](NC(=O)CCCCCCCCCCCCCCCCCCC(=O)O)C(=O)O)C(=O)N[C@@H](CC(N)=O)C(=O)N[C@@H]([C@@H](C)O)C(=O)N[C@@H](C)C(=O)N[C@@H]([C@@H](C)O)C(=O)N1)[C@@H](C)O)C(=O)N[C@@H](CC(C)C)C(=O)N1CCC[C@H]1C(=O)N1CCC[C@H]1C(=O)N[C@H](C(=O)N[C@@H](CC(N)=O)C(=O)N[C@H](C(=O)NCC(=O)N[C@@H](CO)C(=O)N[C@@H](Cc1c[nH]cn1)C(=O)N[C@H](C(=O)N[C@@H](Cc1ccc(O)cc1)C(N)=O)[C@@H](C)O)C(C)C)[C@@H](C)O [Example 95, N-alpha-[(S)-4-Carboxy-4-(19-carboxynonadecanoylamino)butyryl]-[Arg1,Glu14,His17,His35]-pramlintide] ({C20 diacid-γGlu}-RCNTATCATQRLAEFLHHSSNNFGPILPPTNVGSHTY-NH2; disulfide 2-7 (inferred)) |
|  | 26 | CC[C@H](C)[C@H](NC(=O)[C@@H]1CCCN1C(=O)CNC(=O)[C@H](Cc1ccccc1)NC(=O)[C@H](CC(N)=O)NC(=O)[C@H](CC(N)=O)NC(=O)[C@H](CO)NC(=O)[C@H](CO)NC(=O)[C@H](Cc1c[nH]cn1)NC(=O)[C@H](Cc1c[nH]cn1)NC(=O)[C@H](CC(C)C)NC(=O)[C@H](Cc1ccccc1)NC(=O)[C@H](CCC(=O)O)NC(=O)[C@H](C)NC(=O)[C@H](CC(C)C)NC(=O)[C@H](CCCNC(=N)N)NC(=O)[C@H](CCC(N)=O)NC(=O)[C@@H](NC(=O)[C@H](C)NC(=O)[C@@H]1CSSC[C@H](NC(=O)[C@H](CCCNC(=N)N)NC(=O)CNC(=O)CC[C@H](NC(=O)CCCCCCCCCCCCCCCCCCC(=O)O)C(=O)O)C(=O)N[C@@H](CC(N)=O)C(=O)N[C@@H]([C@@H](C)O)C(=O)N[C@@H](C)C(=O)N[C@@H]([C@@H](C)O)C(=O)N1)[C@@H](C)O)C(=O)N[C@@H](CC(C)C)C(=O)N1CCC[C@H]1C(=O)N1CCC[C@H]1C(=O)N[C@H](C(=O)N[C@@H](CC(N)=O)C(=O)N[C@H](C(=O)NCC(=O)N[C@@H](CO)C(=O)N[C@@H](Cc1c[nH]cn1)C(=O)N[C@H](C(=O)N[C@@H](Cc1ccc(O)cc1)C(N)=O)[C@@H](C)O)C(C)C)[C@@H](C)O [Example 100, N-alpha-[(S)-4-Carboxy-4-(19-carboxynonadecanoylamino)butyryl]-Gly-[Arg1,Glu14,His17,His35]-pramlintide] ({C20 diacid-γGlu}-GRCNTATCATQRLAEFLHHSSNNFGPILPPTNVGSHTY-NH2; disulfide 3-8 (inferred)) |
